Source: patent publication US6509380B1, “Method of treating iron overload with acetaminophen” (Marshall University Research Corporation, priority 2001, dated 2003)

Experiments:
iron-overloaded gerbils = experiment: Iron-overload model in Mongolian gerbils (iron dextran ip), treatment with acetaminophen; assay type: in vivo, Mongolian gerbil
Excerpt: Female Mongolian gerbils were divided into groups: positive iron control (iron injections given), iron-treated (injections of iron and acetaminophen), negative iron controls (no iron given), and treatment controls (injections of the investigational agent, only). Gerbils designated to receive iron were iron overloaded by a series of intraperitoneal (ip) injections of iron dextran during a two-month period of time. Treatments were initiated one month after completion of iron overloading and continued for one additional month.
Electrocardiograms (ECGs) were done on gerbils in all four groups, two months and again three months after completion of iron overloading. Gerbils were autopsied five months after completion of iron overloading and resulting stained tissue slides were evaluated by light microscopy. Livers and whole hearts were obtained from gerbils in control and iron-overloaded groups and weighed. Whole hearts and weighed liver samples were acid digested and measured for total iron content.

[1] = Toxicity of acetaminophen in iron overloaded animals versus animals with normal iron levels; assay type: in vivo; conditions: multiple tests, no details given
Excerpt: It was initially believed that acetaminophen would be more toxic in iron overloaded animals than in animals having normal iron levels.

CC(=O)Nc1ccc(O)cc1 [acetaminophen]
premature ventricular complexes (EKG findings) (iron-overloaded gerbils; ECGs two and three months after completion of iron overloading, four of 10 untreated iron-overloaded gerbils (40%) showed them): not in animals from the other three groups | iron-induced cardiac and hepatic hypertrophy (heart weights, heart/total body weight ratios, liver weights, liver/total body weight ratios) (iron-overloaded gerbils; autopsies, weight data and histological evaluations): effectively combats iron-induced cardiac and hepatic hypertrophy | reduction of cardiac iron (ICP-AES tissue iron measurement) (iron-overloaded gerbils; iron-overloaded female gerbils, versus untreated iron-overloaded animals, almost entirely from cardiomyocytes, less from cardiac macrophages, P<0.005): over 40% | reduction in liver iron (ICP-AES tissue iron measurement) (iron-overloaded gerbils; iron-overloaded female gerbils, versus untreated iron-overloaded animals, not statistically significant): 17% | accumulations of iron in the bone marrow, proximal renal tubules, heart and numerous other organs and tissues (iron-overloaded gerbils; stained tissue slides, light microscopy, less effect in the livers): greatly reduced accumulations of iron | deaths (iron-overloaded gerbils; within 5 months after iron overloading, eight of 20 untreated iron-overloaded gerbils died): No deaths | toxicity in animals having an iron overload compared with animals having normal iron levels [1]: less toxic in animals having an iron overload than in animals having normal iron levels
